Where a chain is given by its changes, count along the chain named. Numbers in names are those of the source. Where “and” joins values, the source holds several entries; their conditions need not be identical. Equal entries are not always repeated. Where two headings read alike, the source gives them in different places.
Experiments:
WT rat cPEPCK [1] = target: T1, WT rat cPEPCK (Rattus norvegicus, UniProt P07379); experiment: Inhibitor assays with substrate analogues
T1 sequence (P07379 1-622): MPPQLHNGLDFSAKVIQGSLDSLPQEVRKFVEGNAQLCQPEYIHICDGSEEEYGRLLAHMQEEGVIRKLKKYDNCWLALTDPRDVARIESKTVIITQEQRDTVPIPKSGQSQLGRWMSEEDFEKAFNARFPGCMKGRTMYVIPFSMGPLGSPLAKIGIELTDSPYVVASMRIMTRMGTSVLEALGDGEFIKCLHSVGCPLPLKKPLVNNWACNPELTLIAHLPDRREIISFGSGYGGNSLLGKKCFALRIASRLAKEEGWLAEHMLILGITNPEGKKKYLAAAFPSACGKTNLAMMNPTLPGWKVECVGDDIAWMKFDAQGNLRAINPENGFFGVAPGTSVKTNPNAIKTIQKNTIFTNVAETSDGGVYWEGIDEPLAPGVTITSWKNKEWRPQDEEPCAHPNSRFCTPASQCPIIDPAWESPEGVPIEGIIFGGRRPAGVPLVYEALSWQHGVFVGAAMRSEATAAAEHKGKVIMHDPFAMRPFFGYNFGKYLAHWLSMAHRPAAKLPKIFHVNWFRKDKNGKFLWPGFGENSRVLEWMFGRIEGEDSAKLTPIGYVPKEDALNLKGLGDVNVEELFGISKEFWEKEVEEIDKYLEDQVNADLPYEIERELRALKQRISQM

[2] = target: T2, A467G PEPCK (rat cPEPCK mutant) (Rattus norvegicus, UniProt P07379, A467G); experiment: Inhibitor assays with substrate analogues; conditions: for change in affinity, A467G vs WT: from Ki values of the inhibition experiments
T2 sequence (P07379 1-622 A467G): T1 sequence (P07379 1-622) with A467G

WT rat cPEPCK [3] = target: T1, WT rat cPEPCK; experiment: Assay B: PEP+GDP+CO2→OAA+GTP, coupled MDH assay; type: biochemical; conditions: Wild-type, 25 °C
[4] = target: T2, A467G PEPCK (rat cPEPCK mutant); experiment: Assay B: PEP+GDP+CO2→OAA+GTP, coupled MDH assay; type: biochemical
[5] = target: T2, A467G PEPCK (rat cPEPCK mutant); experiment: Assay A: OAA+GTP→PEP+CO2+GDP, coupled PK/LDH assay; type: biochemical
[6] = target: T2, A467G PEPCK (rat cPEPCK mutant); experiment: Assay D: OAA+GDP→pyruvate+GDP+CO2; type: biochemical
PEPCK = conditions: pyruvate only weakly associates with PEPCK; cited from earlier work
WT rat cPEPCK [7] = target: T1, WT rat cPEPCK; experiment: Assay A: OAA+GTP→PEP+CO2+GDP, coupled PK/LDH assay; type: biochemical
WT rat cPEPCK [8] = target: T1, WT rat cPEPCK; experiment: Assay C: OAA+GTP→pyruvate+GTP+CO2; type: biochemical; conditions: WT PEPCK; GTPγS in place of GTP
[9] = substrate: O=C(O)CC(=O)C(=O)O; experiment: purified protein, by the assay type; type: biochemical, rat; conditions: OAA + GDP → Pyruvate + GDP + CO2, 25 °C
[10] = WT PEPCK, slow substrate GTPγS in place of GTP, OAA→PEP

Molecule: O=C(O)C(=O)CS(=O)(=O)O [βSP, 3-sulfopyruvate]
- Ki (WT rat cPEPCK [1]; Wild-type, assay A, against OAA, competitive (slope) Ki, 25 °C): 26 ± 1 µM
- change in affinity, A467G vs WT [2]: factor of approximately two

Molecule: O=C(O)C(=O)O [oxalate]
- Ki (WT rat cPEPCK [1]): 106 ± 6 µM
- change in affinity, A467G vs WT [2]: approximately a factor of eight
- loss in binding energy / decreased stabilization in A467G vs WT ([2]; from oxalate Ki, extrapolated to the enolate intermediate): ~ 5.3 kJ mol^−1

Molecule: O=C=O [CO2]
- Km (WT rat cPEPCK [3]; labelled substrate varied): 1190 ± 109 µM
- Km ([4]; A467G, PEP + CO2 + GDP → OAA + GTP, 25 °C, labelled substrate varied): 814 ± 98 µM

Molecule: Nc1nc2c(ncn2[C@@H]2O[C@H](COP(=O)(O)OP(=O)(O)OP(=O)(O)O)[C@@H](O)[C@H]2O)c(=O)[nH]1 [GTP, guanosine-5′-triphosphate]
- change in KM, A467G vs WT (factor) ([5]; assay A, OAA→PEP): 1.4
- decrease in kcat/KM, A467G vs WT ([5]; assay A, OAA→PEP): less than a factor of three

Molecule: Nc1nc2c(ncn2[C@@H]2O[C@H](COP(=O)(O)OP(=O)(O)O)[C@@H](O)[C@H]2O)c(=O)[nH]1 [GDP, guanosine-5′-diphosphate]
- kcat/KM of A467G as % of WT ([4]; assay B, PEP→OAA): 3%

Molecule: O=C(O)COP(=O)(O)O [PGA, 2-phosphoglycolate]
- Ki (WT rat cPEPCK [1]; Wild-type, assay B, against PEP, 25 °C): 2530 ± 13 µM
- change in affinity, A467G vs WT [2]: increases by less than a factor of two

Molecule: O=C(O)CC(=O)C(=O)O [OAA, oxaloacetic acid]
- kcat/KM of A467G as % of WT ([5]; assay A, OAA→PEP): 1.9% and 2%
- KM of A467G relative to WT ([5]; assay A, OAA→PEP, higher in A467G): 14 fold
- efficiency of WT relative to A467G at catalyzing decarboxylation of OAA [6]: 20 fold

Molecule: CC(=O)C(=O)O [pyruvate]
- Ki (PEPCK): 9000 µM

Molecule: Nc1nc2c(ncn2[C@@H]2O[C@H](COP(=O)(O)OP(=O)(O)OP(O)(O)=S)[C@@H](O)[C@H]2O)c(=O)[nH]1 [GTPγS, guanosine 5′-O-[gamma-thio]triphosphate]
- Km (WT rat cPEPCK [7]; [10]): 39 µM
- kcat (WT rat cPEPCK [7]; [10]): 13 s⁻¹
- pyruvate formation during the OAA→PEP reaction (WT rat cPEPCK [8]): did not observe any pyrvuate formation

Molecule: C=C(OP(=O)(O)O)C(=O)O [PEP, phosphoenolpyruvate]
- KM of A467G as % of WT ([4]; assay B, PEP→OAA): 21% and ~ 21%
- reduction in catalytic efficiency of A467G relative to WT ([4]; assay B, PEP→OAA): factor of four

B1: WT rat cPEPCK (Rattus norvegicus) (protein)
chain: T1 sequence (P07379 1-622)
- kcat (WT rat cPEPCK [7]; Wild-type, OAA + GTP → PEP + GDP + CO2, 25 °C): 54 ± 0.2 s⁻¹
- kcat (WT rat cPEPCK [3]): 19 ± 0.8 s⁻¹
- Km ([9]; other: Wild-type): 117 ± 11 µM
- kcat ([9]; other: Wild-type): 2.3 ± 0.1 s⁻¹
- kcat/Km ([9]; other: Wild-type): 20000 M⁻¹ s⁻¹

B2: A467G PEPCK (rat cPEPCK mutant) (Rattus norvegicus; A467G) (protein)
chain: T1 sequence (P07379 1-622) with A467G
- kcat ([5]; A467G, OAA + GTP → PEP + GDP + CO2, 25 °C): 14 ± 0.1 s⁻¹
- kcat ([4]; A467G, PEP + CO2 + GDP → OAA + GTP, 25 °C): 1 ± 0.1 s⁻¹
- Km ([9]; other: A467G): 970 ± 118 µM
- kcat ([9]; other: A467G): 1.3 ± 0.1 s⁻¹
- kcat/Km ([9]; other: A467G): 1000 M⁻¹ s⁻¹
